Source: patent publication US20200254110A1, “LIGAND-CONJUGATES AND METHODS FOR TARGETED RECEPTOR-MEDIATED CELLULAR UPTAKE” (priority 2017, published 2020)
Ends that are not written are not given here.

How the values were obtained:
[1] = target: T1, PAR2-expressing HEK293 (human embryonic kidney) cells (Homo sapiens, UniProt P55085); test: Intracellular Ca2+ mobilization assay (Indo-1 AM, flow cytometry); assay type: cell-based; conditions: for relative potential of PAR2 activation (rank order): HEK293 cells, calcium mobilization, FIG. 4 A-C; for shift in relative fluorescence intensity (RFI) of the cells relative to the untreated sample (PAR2 activation, intracellular calcium mobilization): HEK293 cells preincubated with Indo-1 AM, P6 100-200 μM, P8 200-400 μM, flow cytometry
T1 construct: PAR2-expressing HEK293 (human embryonic kidney) cells; endogenous in cells; host or cells: HEK293
T1 sequence (P55085 26-397): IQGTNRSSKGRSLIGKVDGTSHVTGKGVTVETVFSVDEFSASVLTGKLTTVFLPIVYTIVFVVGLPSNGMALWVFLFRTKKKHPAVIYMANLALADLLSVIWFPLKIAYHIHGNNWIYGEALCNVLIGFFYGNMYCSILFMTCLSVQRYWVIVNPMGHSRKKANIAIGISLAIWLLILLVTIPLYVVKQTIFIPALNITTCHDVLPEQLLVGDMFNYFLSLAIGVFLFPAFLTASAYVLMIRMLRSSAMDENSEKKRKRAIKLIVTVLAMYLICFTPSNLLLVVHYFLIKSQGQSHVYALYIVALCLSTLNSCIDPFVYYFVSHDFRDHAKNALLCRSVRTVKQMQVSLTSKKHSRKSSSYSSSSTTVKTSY
Text: To test whether the modified PAR ligands such as the synthesis intermediates as well as the final compound P8 are capable of binding and activating PAR in vitro a calcium-based cell activation assay was established on the basis of the assay for measurement of intracellular Ca^2+ mobilization described in Kelm et al., J. Exp. Med. 195 (2002), 1207-1213, which can be used directly on PAR, i.e. PAR2 expressing cells.
SOP: Measurement of Intracellular Ca^2+ Mobilization • Thaw 1 aliquot of frozen (from liquid N2) HEK293 cells (careful at RT) • Provide 10 mL of DMEM (Dulbecco's Modified Eagle Medium, phenol red free!) containing 10% FCS, antibiotics (50 μg/mL gentamicin final conc.) on a 10 cm cell culture plate • Add cells to the plate and grow them at 37° C., 8% CO2 until 60-70% confluency (one cell layer on the plate) • Wash the cells 3× with 10 mM PBS (phosphate buffer saline), pH 7.4 • Add 10 mL of fresh DMEM (phenol red free!) and carefully resuspend the cells • Count the cells employing a flow cytometer and dilute to 3×10^5 cells/mL in DMEM (phenol red free!) • Pipette 1 ml of the diluted cell suspension in each well of a 24-well cell culture plate • Add 30 μL of Pluronic® F-127 (0.01% (v/v) final conc., P2443 Sigma-Aldrich) and 15 μL of Indo 1-AM ester in DMSO (15 μM final conc., I3261 Sigma-Aldrich) to the cell suspension • Incubate for 45 min at 37° C., 8% CO2, in the dark • Henceforward keep the cells in the dark • Remove cells from the culture plate and subsequently wash 1× with 15 mL of HEPES buffer (100 mM HEPES, pH 7.4) to remove excess Indo 1-AM ester and resuspend cells in 1 mL HEPES buffer (100 mM HEPES, pH 7.4) • Add 10 μL propidium iodide (PI: final conc. 100 ng/mL, P4864 Sigma-Aldrich) to the cell suspension and immediately perform flow cytometry analysis • Perform flow cytometry analysis using the appropriate laser/filter sets (CyFlow® Cube 8 Sysmex):
Indo 1-AM: λexcitation,max 345 nm, λemission,max 400 nm (Ca^2+ bound), λemission,max 475 nm (Ca^2+ free), (excitation: UV-LED, emission: FL4 channel, 455/50 nm)
PI: λexcitation,max 535 nm (DNA-bound), λemission,max 617 nm (DNA-bound), (excitation: 488 nm laser, emission: FL2 channel, 590/50 nm) • For PAR-2 activation, add the appropriate amount of activator (SLIGRL: 50 μM final conc., trypsin: 40 Units (TRYPSEQM-RO Roche), P6 or P8: 100-200 μM or 200-400 μM respectively) to the cell suspension (containing 15 nmol Indo 1-AM ester) and immediately perform flow cytometry analysis • Determine the decrease in relative fluorescence intensity (due to the shift from unbound towards calcium bound Indo 1-AM complexes) after PAR mediated activation of HEK293 cells
As described above, activation of PARs leads to the initiation of a variety of signal transduction pathways and downstream signaling. One consequence of PAR activation presents the intracellular calcium mobilization from storage reservoirs of the endoplasmic reticulum (ER) and mitochondria into the cytosol. […] In the present assay the Indo-1 AM fluorophore was used, which is an esterified derivative of Indo-1 and thus able to penetrate the cell membrane. Upon uptake into the cytoplasm, present esterases will transfer the ester into the carboxylate, which is then trapped in the cell due to its obtained negative charges. A shift in Indo-1 AM emission from 480 nm (calcium free Indo-1 AM) to 400 nm (calcium bound Indo-1 AM) can be detected employing a flow cytometer, when bound to free calcium. […]

PAR2 = target: T2, PAR2 (Homo sapiens, UniProt P55085); conditions: PAR2 agonist peptide, reference [1]; cited from earlier work
T2 sequence (P55085 26-397): T1 sequence (P55085 26-397)

[2] = test system: PAR2 expressing keratinocytes (HaCaT); test: PAR2 mediated endocytosis assay (fluorescence microscopy); assay type: cell-based, human; conditions: keratinocytes serum-starved 24 h, 2 h incubation, FIG. 5
Protocol: SOP: PAR2 Mediated Endocytosis Assay • Culture HaCaT (cultured human keratinocytes) cells in DMEM (Dulbecco's Modified Eagle Medium, phenol red free!) supplemented with 10% (w/v) FCS and antibiotics (gentamicin: 50 μg/mL final conc.) in a 10 cm cell culture plate at a confluency (one cell layer on the plate) of 60-70% • Count the cells and dilute to 1-2×10^4 cells/mL in DMEM (phenol red free!) • Incubate 1 mL of the diluted cell suspension in each well of a 24-well cell culture plate supplemented with 10% (w/v) FCS (containing gentamicin at a final conc. of 50 μg/mL) on a glass coverslip for 24 h at 37° C., 5% CO2 • Discard the supernatant and carefully wash the cells 3 times with 500 μL DMEM (phenol red free, without FCS!) • Incubate the cells for 24 h at 37° C., 5% CO2 (DMEM without serum addition, phenol red free only!) • Add CaCl2 solution to reach a final concentration of 1.5 mM in the medium when using Ca^2+-free medium (induction of cell differentiation) • For PAR2 activation […]
An endocytosis assay was used to test whether the PAR ligand-conjugate, i.e. PAR2 agonist P8 enhances the uptake of IONPs into PAR, here PAR2 expressing keratinocytes, when immobilized to the surface of the IONP. […] After the incubation, cells were washed thoroughly for several times and internalization of the modified IONPs was analyzed employing fluorescent microscopy (FIG. 5, lower right corner). […]

| Substance | relative potential of PAR2 activation (rank order) [1] | shift in relative fluorescence intensity (RFI) of the cells relative to the untreated sample (PAR2 activation, intracellular calcium mobilization) [1] | effectiveness relative to SLIGRL-NH2 (PAR2) | uptake (internalization) into cultured keratinocytes [2] |
| --- | --- | --- | --- | --- |
| SerLeuIleGlyArgLeu-NH2 (SLIGRL-NH2) [PAR2 agonist hexapeptide, native tethered ligand of rodent PAR2, reference compound] | decreased from SLIGRL-NH2, to P6 and further to P8 |  |  |  |
| Fam5/6-Lysine-DEG-SLIGRL [P8] | decreased from SLIGRL-NH2, to P6 and further to P8 | induced a shift in relative fluorescence intensity |  |  |
| NH2-DEG-SLIGRL [P6] | decreased from SLIGRL-NH2, to P6 and further to P8 | induced a shift in relative fluorescence intensity |  |  |
| 2-furoyl(1)L(2)IG(4)RL(6)-NH2 |  |  | 10-20 fold |  |
| P8 modified IONPs (SLIGRL; not fully specified (C-terminus); also: P8 modified IONPs (on iron oxide nanoparticles)) |  |  |  | successful uptake |
